Patent US10485773B2, “Benzenesulfonamide derivatives and method for treating cancer” (GONGWIN BIOPHARM HOLDINGS CO., LTD., priority 2016, dated 2019)
≈ marks a conversion by molar mass, not a printed value. Where “and” joins values, the source holds several entries; their conditions need not be identical. Equal values may be shown once. Read-outs that look alike come from different tables or passages of the source.

What was measured:
[1] = first dissolution test in DMSO or water; settings: for dissolution in the first dissolution test: DMSO or water; for Total volume of DMSO for dissolving the p-TSA derivatives / Total volume of water for dissolving the p-TSA derivatives: first dissolution test, amount for a 3M solution in 0.5 mL, up to 15000 μL; for solubility: thermodynamic from solid
Method: Each of the powder of p-TSA derivatives was duplicated, placed in each 15 mL centrifuge tube, followed by adding 200 μL DMSO or 200 μL water and shaking for 10 to 20 seconds for dissolution observation. If the powder was not dissolved, additional DMSO or water was added, and then the mixture was shaken. The tube was left to stand for 10 minutes for observation if the powder was still not dissolved after adding 1 mL DMSO or 1 mL water. If the powder was still not dissolved after adding 5 mL DMSO or 5 mL water, additional 1 mL DMSO or 1 mL water was added, and then the mixture was shaken for 30 seconds. If the powder was still not dissolved after adding 10 mL DMSO or 10 mL water, the tube was left to stand for 12 to 16 hours and observed on the next day. DMSO or water was added into the tube having the undissolved p-TSA derivatives up to 15 mL, followed by shaking for 30 minutes for observation.

[2] = tested on: human liver cancer cell lines Hep3B; assay: SRB growth inhibition of liver cancer cells; type: cell-based
Method: (§1) After letting to stand for 10 minutes at room temperature, the supernatant of each well was removed, and each well was washed with 200 μL H2O once. […] Each of the plates was then placed in the laminar flow cabinet for 1 hour for air dry. 50 μL 0.4% sulforhodamine B (SRB) dye was added into each well of the 96-well plate. […] Each of the plates was then placed in the laminar flow cabinet for 40 minutes to 1 hour for air dry. 1×Tris-Base solution with pH 7.0 to 7.4 was added to each well of the 96-well plate to dissolve the protein complex formed in the bottom of each well, followed by tapping the 96-well plate, allowing the complex in each well to be dissolved uniformly. Absorption of each well under 515 nm was read. […] Each of the experimental group was performed in triplet.

[3] = tested on: human non-small-cell lung cancer cell lines H460; assay: SRB growth inhibition of lung cancer cells; type: cell-based
Method: as §1

[4] = second dissolution test in DMSO or water; type: physicochemical; settings: for dissolution in the second dissolution test: 100 mg powder, DMSO or water; for Total volume of DMSO for dissolving the p-TSA derivatives / Total volume of water for dissolving the p-TSA derivatives: second dissolution test, 0.1 g powder
Method: A second dissolution test was performed for the undissolved p-TSA derivatives. Each of 100 mg p-TSA derivatives powder was placed in each of the scintillation vial, followed by adding 500 μL DMSO or 500 μL water and shaking for 30 seconds for dissolution observation.

[5] = Homo sapiens, Hep3B, 48 h, derivative dissolved in water, 48 hours, SRB, read-out: IC50 of Hep3B in water
[6] = derivative dissolved in DMSO, 48 hours, SRB, read-out: IC50 of Hep3B in DMSO
[7] = Homo sapiens, NCI-H460, 48 h, derivative dissolved in water, 48 hours, SRB, read-out: IC50 of H460 in water
[8] = derivative dissolved in DMSO, 48 hours, SRB, read-out: IC50 of H460 in DMSO
[9] = Homo sapiens, Hep3B, 48 h, derivative dissolved in DMSO, 48 hours, SRB, read-out: IC50 of Hep3B in DMSO
[10] = Homo sapiens, NCI-H460, 48 h, derivative dissolved in DMSO, 48 hours, SRB, read-out: IC50 of H460 in DMSO
[11] = DMSO, organic solvent or mixture

Row | Total volume of DMSO for dissolving the p-TSA derivatives ([1]; DMSO) | Total volume of water for dissolving the p-TSA derivatives ([1]; water) | IC50 [2, 9] [µM] | IC50 [3, 10] [µM] | Compound | other results
1 | insoluble in 15000 μL | insoluble in 15000 μL |  |  | CC(=O)NS(=O)(=O)c1ccc(C)cc1 [PTSA002] | dissolution in the first dissolution test [1]: not dissolved in DMSO or water; IC50 [2, 5]: > 6030 µM; IC50 [2, 6]: > 270 µM; IC50 [3, 7]: > 6030 µM; IC50 [3, 8]: > 270 µM; dissolution in the second dissolution test [4]: dissolved in both of; Total volume of DMSO for dissolving the p-TSA derivatives [4]: 8 mL; Total volume of water for dissolving the p-TSA derivatives [4]: 5.25 mL
2 | insoluble in 15000 μL | insoluble in 15000 μL |  |  | Cc1ccc(S(=O)(=O)N2CC(=NNC(=O)C3CN(S(=O)(=O)c4ccc(C)cc4)C3)C2)cc1 [PTSA073] | dissolution in the first dissolution test [1]: not dissolved in DMSO or water; dissolution in the second dissolution test [4]: dissolved in both of; Total volume of DMSO for dissolving the p-TSA derivatives [4]: 4.04 mL; Total volume of water for dissolving the p-TSA derivatives [4]: insoluble in 20 mL
3 | insoluble in 15000 μL | insoluble in 15000 μL | > 174 | > 174 | Cc1ccc(S(=O)(=O)NCCF)cc1 [PTSA049] | dissolution in the first dissolution test [1]: not dissolved in DMSO or water; dissolution in the second dissolution test [4]: dissolved in both of; Total volume of DMSO for dissolving the p-TSA derivatives [4]: 9.5 mL; Total volume of water for dissolving the p-TSA derivatives [4]: insoluble in 20 mL
4 | 505 µL | insoluble in 15000 μL | 1840 | 1610 | COCCCNS(=O)(=O)c1ccc(C)cc1 [PTSA043] | 
5 | 500 µL | insoluble in 15000 μL | 3920 | 3250 | Cc1ccc(S(=O)(=O)N[C@@H](C)CO)cc1 [PTSA026] | 
6 | 2000 µL | 2500 µL |  |  | Cc1ccc(S(=O)(=O)NC(=O)NS(=O)(=O)c2ccc(C)cc2)cc1 [PTSA018] | IC50 [2, 5]: > 3000 µM; IC50 [2, 6]: > 3000 µM; IC50 [3, 7]: > 3000 µM; IC50 [3, 8]: > 3000 µM
7 | 3000 µL | insoluble in 15000 μL | > 2250 | > 2250 | Cc1ccc(S(=O)(=O)N2CC(C(N)=O)C2)cc1 [PTSA062] | 
8 | 475 µL | insoluble in 15000 μL | 2750 | 2490 | COCCNS(=O)(=O)c1ccc(C)cc1 [PTSA042] | 
9 | 620 µL | insoluble in 15000 μL | 5360 | 5530 | Cc1ccc(S(=O)(=O)NCC(O)CO)cc1 (stereo not drawn) [PTSA028] | 
10 | insoluble in 15000 μL | insoluble in 15000 μL |  |  | Cc1ccc(S(=O)(=O)N2CCC(O)CC2)cc1 [PTSA032] | Dissolution of p-TSA derivatives (in DMSO and/or water) ([1]; overall result of first and second dissolution tests, category is the column head of Table 3): not dissolved in neither DMSO nor water; Total volume of DMSO for dissolving the p-TSA derivatives [4]: insoluble in 20 ml mL; Total volume of DMSO for dissolving the p-TSA derivatives ([4]; listed as PTSA0032): > 20 mL; Total volume of water for dissolving the p-TSA derivatives [4]: insoluble in 20 mL; Total volume of water for dissolving the p-TSA derivatives ([4]; listed as PTSA0032): > 20 mL
11 | 495 µL | insoluble in 15000 μL | 2810 | 2450 | Cc1ccc(S(=O)(=O)NCCCO)cc1 [PTSA021] | 
12 | 575 µL | insoluble in 15000 μL | 4100 | 5350 | Cc1ccc(S(=O)(=O)NC[C@@H](O)CO)cc1 [PTSA027] | 
13 | 2500 µL | insoluble in 15000 μL | 1450 | 1330 | Cc1ccc(S(=O)(=O)N2CC(F)C2)cc1 [PTSA065] | 
14 | 605 µL | insoluble in 15000 μL | 265 | 288 | Cc1ccc(S(=O)(=O)N2CC(O)C2)cc1 [PTSA037] | solubility [1, 11]: 832 mg/mL (≈ 3660 mM); solubility ([1]; water): < 50 mg/mL; IC50 [2, 6]: 274 µM and 264 µM; IC50 [3, 8]: 259 µM
15 | 475 µL | insoluble in 15000 μL | 329 | 431 | Cc1ccc(S(=O)(=O)NC2COC2)cc1 [PTSA040] | solubility [1, 11]: 762 mg/mL (≈ 3350 mM); solubility ([1]; water): < 50 mg/mL; IC50 [2, 6]: 413 µM; IC50 [3, 8]: 406 µM
16 | 695 µL | insoluble in 15000 μL | 4310 | 3300 | Cc1ccc(S(=O)(=O)NC(C)(CO)CO)cc1 [PTSA030] | 
17 | 870 µL | insoluble in 15000 μL | 261 | 273 | Cc1ccc(S(=O)(=O)N2CC(C(=O)NO)C2)cc1 [PTSA067] | solubility [1, 11]: 466 mg/mL (≈ 1720 mM); solubility ([1]; water): < 50 mg/mL
18 | 3000 µL | insoluble in 15000 μL | 733 | 906 | Cc1ccc(S(=O)(=O)N2CC(=O)C2)cc1 [PTSA066] | 
19 | 530 µL | insoluble in 15000 μL | 3400 | 2540 | Cc1ccc(S(=O)(=O)N2CCC(O)C2)cc1 (stereo not drawn) [PTSA036] | 
20 | 900 µL | insoluble in 15000 μL | 1300 | 1270 | Cc1ccc(S(=O)(=O)N2CC(C#N)C2)cc1 [PTSA063] | 
21 | 680 µL | insoluble in 15000 μL | 1570 | 1620 | Cc1ccc(S(=O)(=O)N2CCNCC2)cc1 [PTSA038] | 
22 | 960 (with pipetting) μL | insoluble in 15000 μL | > 7000 | 9670 | NS(=O)(=O)c1ccc(C(=O)O)cc1 [PTSA004] | 
23 | 2500 µL | 10000 µL | > 1800 | > 1800 | Cc1ccc(S(=O)(=O)N2CC(N)C2)cc1.Cl [PTSA074] | IC50 [2, 5]: 2130 µM; IC50 [3, 7]: 2220 µM
24 | 515 µL | insoluble in 15000 μL | 3830 | 3220 | Cc1ccc(S(=O)(=O)NCC(C)O)cc1 (stereo not drawn) [PTSA024] | 
25 | 600 µL | insoluble in 15000 μL | 9110 | 7930 | Cc1ccc(S(=O)(=O)NCC(=O)O)cc1 [PTSA044] | 

Row | Compound | Total volume of DMSO for dissolving the p-TSA derivatives ([1]; DMSO) | Total volume of water for dissolving the p-TSA derivatives ([1]; water) | IC50 [2, 9] [µM] | IC50 [3, 10] [µM] | other results
26 | Cc1ccc(S(=O)(=O)N2CC(C(=O)[O-])C2)cc1.[Na+] [PTSA061] | 2500 µL | 750 µL |  |  | IC50 ([2]; Homo sapiens, Hep3B, 48 h, read-out: IC50 of Hep3B in DMSO): > 2250 µM; IC50 ([2]; Homo sapiens, Hep3B, 48 h, read-out: IC50 of Hep3B in water): > 8800 µM; IC50 ([3]; Homo sapiens, NCI-H460, 48 h, read-out: IC50 of H460 in DMSO): > 2250 µM; IC50 ([3]; Homo sapiens, NCI-H460, 48 h, read-out: IC50 of H460 in water): > 8800 µM
